The text below walks through data of patent US7932283B2, “Fungicide N-cyclopropyl-sulfonylamide derivatives” (Bayer Cropscience AG, priority 2006, dated 2011).

Usually chromatographic logP stands for lipophilicity estimated from chromatographic retention. The low end stands for a more hydrophilic compound, the high end for a more lipophilic compound.

One series in a line: logP by HPLC on reversed-phase column (C 18), EEC Directive 79/B31 Annex V.A8, methods A and B. It counts as physicochemical. The settings on record: reversed-phase HPLC column (C 18), LogP method A: HPLC reversed-phase C 18, 43° C., 0.1% aqueous phosphoric acid / acetonitrile, linear gradient 10% to 90% acetonitrile. Here is the method: Calibration was carried out using unbranched alkan-2-ones (having 3 to 16 carbon atoms) with known logP values (determination of the logP values by the retention times using linear interpolation between two successive alkanones).
`Cc1nn(C)c(O)c1C(=O)N(C1CC1)S(=O)(=O)c1ccc(O)c(C(F)(F)F)c1` [Compound 406] registered a chromatographic logP of 3.76.

`Cc1nn(C)c(O)c1C(=O)N(C1CC1)S(=O)(=O)c1ccc(O)c(O)c1` [Compound 407] registered a chromatographic logP of 3.63.

The molecule `Cc1n[nH]c(C)c1C(=O)N(C1CC1)S(=O)(=O)c1ccc(O)c(C(F)(F)F)c1` [Compound 408] yielded a chromatographic logP of 3.

`Cc1n[nH]c(C)c1C(=O)N(C1CC1)S(=O)(=O)c1ccc(O)c(O)c1` [Compound 409] yielded a chromatographic logP of 2.74.

On to `Cc1n[nH]c(C)c1C(=O)N(C1CC1)S(=O)(=O)c1ccc(C(C)(C)C)cc1` [Compound 410], for which the chromatographic logP stood at 3.04.

The molecule `Cc1nn(C)c(C)c1C(=O)N(C1CC1)S(=O)(=O)c1ccc(O)c(C(F)(F)F)c1` [Compound 411] had a chromatographic logP of 3.37.

`Cc1nn(C)c(C)c1C(=O)N(C1CC1)S(=O)(=O)c1ccc(O)c(O)c1` [Compound 412] displayed a chromatographic logP of 3.21.

For `Cc1nn(C)c(C)c1C(=O)N(C1CC1)S(=O)(=O)c1ccc(O)cc1O` [Compound 413], the chromatographic logP worked out at 2.8.

The molecule `Cc1nn(C)c(C)c1C(=O)N(C1CC1)S(=O)(=O)c1ccc(C(C)(C)C)cc1` [Compound 414] yielded a chromatographic logP of 3.41.

On to `COC(=O)c1csc(C)c1S(=O)(=O)N(C(=O)c1c(C)nn(C)c1F)C1CC1` [Compound 434], for which the chromatographic logP is 2.24.

The molecule `Cc1nn(C)c(F)c1C(=O)N(C1CC1)S(=O)(=O)c1cnc(O)c(Br)c1` [Compound 447] showed a chromatographic logP of 3.08.

Consider `Cc1noc(C)c1C(=O)N(C1CC1)S(=O)(=O)c1ccc(C(F)(F)F)cc1` [Compound 588], for which the chromatographic logP amounted to 3.46.

In the case of `CCc1onc(C(C)C)c1C(=O)N(C1CC1)S(=O)(=O)c1cccc(O)c1` [Compound 589], the chromatographic logP is 4.18.

Take `CCc1onc(C(C)C)c1C(=O)N(C1CC1)S(=O)(=O)c1ccc(C(F)(F)F)cc1` [Compound 590]: the chromatographic logP was 4.37.

Consider `Cc1noc(C)c1C(=O)N(C1CC1)S(=O)(=O)c1ccc(O)c(O)c1` [Compound 591], for which the chromatographic logP was 3.72.

Regarding `Cc1noc(C)c1C(=O)N(C1CC1)S(=O)(=O)c1ccc(O)cc1O` [Compound 592], the chromatographic logP was determined as 3.41.

As to `Cc1noc(C)c1C(=O)N(C1CC1)S(=O)(=O)c1ccc(C(C)(C)C)cc1` [Compound 593], the chromatographic logP turned out to be 4.03.

`CCc1onc(C(C)C)c1C(=O)N(C1CC1)S(=O)(=O)c1ccc(O)c(C(F)(F)F)c1` [Compound 594] showed a chromatographic logP of 4.82.

The molecule `CCc1onc(C(C)C)c1C(=O)N(C1CC1)S(=O)(=O)c1ccc(O)c(O)c1` [Compound 595] showed a chromatographic logP of 4.77.

The same series, now with this note: reversed-phase HPLC column (C 18), LogP method B: HPLC reversed-phase C 18, 40° C., 0.1% aqueous formic acid / acetonitrile, linear gradient 10% to 90% acetonitrile.
The molecule `CCc1nn(C)c(F)c1C(=O)N(C1CC1)S(=O)(=O)c1c(O)sc(O)c1O` [Compound 437] showed a chromatographic logP of 3.85.

On to `COc1nn(C)cc1C(=O)N(C1CC1)S(=O)(=O)c1csc(O)c1O` [Compound 440], for which the chromatographic logP was 3.1.

As for `Cc1nn(C)c(O)c1S(=O)(=O)N(C(=O)c1c(C(F)(F)F)nn(C)c1F)C1CC1` [Compound 443], the chromatographic logP was 2.6.

As to `COc1nn(C)cc1C(=O)N(C1CC1)S(=O)(=O)c1cnn(C)c1O` [Compound 444], the chromatographic logP amounted to 1.7.

`COc1nn(C)cc1C(=O)N(C1CC1)S(=O)(=O)c1cnc(O)c(Br)c1` [Compound 449]: the chromatographic logP was 2.

In turn, `COc1nn(C)cc1C(=O)N(C1CC1)S(=O)(=O)c1ccc(Oc2ccc(C)nc2)cc1Br` [Compound 458] returned a chromatographic logP of 2.

Take `COc1nn(C)cc1C(=O)N(C1CC1)S(=O)(=O)c1ccc(F)cc1Br` [Compound 459]: the chromatographic logP amounted to 2.2.

With `COc1nn(C)cc1C(=O)N(C1CC1)S(=O)(=O)c1ccccc1C(F)(F)F` [Compound 460], the chromatographic logP was 2.3.

Take `COc1nn(C)cc1C(=O)N(C1CC1)S(=O)(=O)c1c(O)cc(Cl)cc1O` [Compound 461]: the chromatographic logP amounted to 2.7.

As to `COc1ccc(Oc2ccc(S(=O)(=O)N(C(=O)c3cn(C)nc3OC)C3CC3)c(Br)c2)cc1OC` [Compound 462], the chromatographic logP amounted to 2.9.

The molecule `COc1ccc(Oc2ccc(S(=O)(=O)N(C(=O)c3cn(C)nc3OC)C3CC3)c(Br)c2)cc1` [Compound 463] displayed a chromatographic logP of 3.3.

Take `COc1nn(C)cc1C(=O)N(C1CC1)S(=O)(=O)c1ccc(Oc2ccccc2)cc1Br` [Compound 464]: the chromatographic logP was determined as 3.3.

Molecule `COc1nn(C)cc1C(=O)N(C1CC1)S(=O)(=O)c1ccc(Oc2ccccc2O)cc1Br` [Compound 465] had a chromatographic logP of 3.5.

On to `COc1nn(C)cc1C(=O)N(C1CC1)S(=O)(=O)c1ccc(Oc2cccc(N(C)C)c2)cc1Br` [Compound 466], for which the chromatographic logP stood at 3.5.

On to `COc1nn(C)cc1C(=O)N(C1CC1)S(=O)(=O)c1ccc(Oc2ccc(C)cc2)cc1Br` [Compound 467], for which the chromatographic logP turned out to be 3.7.

As for `COc1nn(C)cc1C(=O)N(C1CC1)S(=O)(=O)c1ccc(Oc2cccc(O)c2)cc1Br` [Compound 468], the chromatographic logP is 3.7.

Take `COc1nn(C)cc1C(=O)N(C1CC1)S(=O)(=O)c1ccc(Oc2ccc(Cl)cc2)cc1Br` [Compound 469]: the chromatographic logP turned out to be 3.8.

Molecule `COc1nn(C)cc1C(=O)N(C1CC1)S(=O)(=O)c1ccc(Oc2ccc(C)c(O)c2)cc1Br` [Compound 470] displayed a chromatographic logP of 3.8.

Take `COc1nn(C)cc1C(=O)N(C1CC1)S(=O)(=O)c1ccc(Oc2cccc(C(F)(F)F)c2F)cc1Br` [Compound 471]: the chromatographic logP was 3.8.

`COc1nn(C)cc1C(=O)N(C1CC1)S(=O)(=O)c1ccc(Oc2cccc(C(F)(F)F)c2)cc1Br` [Compound 472]: the chromatographic logP turned out to be 3.8.

As for `COc1nn(C)cc1C(=O)N(C1CC1)S(=O)(=O)c1ccc(Oc2cccc(Br)c2)cc1Br` [Compound 473], the chromatographic logP amounted to 3.8.

The molecule `COc1nn(C)cc1C(=O)N(C1CC1)S(=O)(=O)c1ccc(Oc2ccc(Br)cc2)cc1Br` [Compound 474] returned a chromatographic logP of 3.9.

Molecule `COc1nn(C)cc1C(=O)N(C1CC1)S(=O)(=O)c1ccc(Oc2ccc(C(F)(F)F)cc2)cc1Br` [Compound 475] yielded a chromatographic logP of 3.9.

With `COc1nn(C)cc1C(=O)N(C1CC1)S(=O)(=O)c1ccc(Oc2cccc(OC(F)(F)F)c2)cc1Br` [Compound 476], the chromatographic logP turned out to be 4.

Take `COc1nn(C)cc1C(=O)N(C1CC1)S(=O)(=O)c1ccc(Oc2ccc(O)cc2Cl)cc1Br` [Compound 477]: the chromatographic logP stood at 4.1.

On to `COc1nn(C)cc1C(=O)N(C1CC1)S(=O)(=O)c1ccc(Oc2ccc(O)c(O)c2)cc1Br` [Compound 478], for which the chromatographic logP worked out at 4.2.

Molecule `COc1nn(C)cc1C(=O)N(C1CC1)S(=O)(=O)c1ccc(Oc2ccc(Cl)c(C(F)(F)F)c2)cc1Br` [Compound 479] yielded a chromatographic logP of 4.2.

In turn, `COc1nn(C)cc1C(=O)N(C1CC1)S(=O)(=O)c1ccc(Oc2ccc(Br)c(O)c2)cc1Br` [Compound 480] showed a chromatographic logP of 4.2.

In turn, `COc1nn(C)cc1C(=O)N(C1CC1)S(=O)(=O)c1ccc(Oc2cc(O)cc(O)c2)cc1Br` [Compound 481] returned a chromatographic logP of 4.3.

`CCCCCc1ccc(Oc2ccc(S(=O)(=O)N(C(=O)c3cn(C)nc3OC)C3CC3)c(Br)c2)cc1` [Compound 482] registered a chromatographic logP of 5.4.

Molecule `CCOc1nn(C)cc1C(=O)N(C1CC1)S(=O)(=O)c1ccc(Oc2ccc(C)cc2)cc1Cl` [Compound 525] registered a chromatographic logP of 2.2.

In the case of `CCOc1nn(C)cc1C(=O)N(C1CC1)S(=O)(=O)c1ccc(Oc2ccc(C)nc2)cc1Br` [Compound 526], the chromatographic logP turned out to be 2.3.

In the case of `CCOc1nn(C)cc1C(=O)N(C1CC1)S(=O)(=O)c1ccc(Oc2ccc(OC)c(OC)c2)cc1O` [Compound 527], the chromatographic logP came out at 3.2.

In the case of `CCOc1nn(C)cc1C(=O)N(C1CC1)S(=O)(=O)c1ccc(Oc2ccc(OC)cc2)cc1O` [Compound 529], the chromatographic logP worked out at 3.5.

Consider `CCOc1nn(C)cc1C(=O)N(C1CC1)S(=O)(=O)c1ccc(OC2=CC(N(C)C)=CCC2)cc1O` [Compound 532], for which the chromatographic logP is 3.8.

Molecule `CCOc1nn(C)cc1C(=O)N(C1CC1)S(=O)(=O)c1ccc(Oc2cccc(O)c2)cc1O` [Compound 534] came in with a chromatographic logP of 3.9.

`CCOc1nn(C)cc1C(=O)N(C1CC1)S(=O)(=O)C1C=CC(Oc2ccc(F)c(O)c2)=CC1O` (centres unmarked) [Compound 536] came in with a chromatographic logP of 4.

For `CCOc1nn(C)cc1C(=O)N(C1CC1)S(=O)(=O)c1ccc(Oc2ccccc2O)c(O)c1` [Compound 537], the chromatographic logP is 4.1.

The molecule `CCOc1nn(C)cc1C(=O)N(C1CC1)S(=O)(=O)c1ccc(Oc2cccc(Br)c2)cc1Br` [Compound 540] gave a chromatographic logP of 4.2.

Take `CCOc1nn(C)cc1C(=O)N(C1CC1)S(=O)(=O)c1ccc(Oc2ccc(Br)cc2)cc1Br` [Compound 541]: the chromatographic logP amounted to 4.2.

The molecule `CCOc1nn(C)cc1C(=O)N(C1CC1)S(=O)(=O)c1ccc(Oc2ccc(O)cc2Cl)cc1O` [Compound 543] returned a chromatographic logP of 4.3.

Turning to `CCOc1nn(C)cc1C(=O)N(C1CC1)S(=O)(=O)C1C=CC(Oc2ccc(Br)c(O)c2)=CC1O` (centres unmarked) [Compound 544], the chromatographic logP came out at 4.3.

For the molecule `CCOc1nn(C)cc1C(=O)N(C1CC1)S(=O)(=O)C1C=CC(Oc2cccc(C(F)(F)F)c2)=C(O)C1` (centres unmarked) [Compound 549], the chromatographic logP amounted to 4.4.

Molecule `CCOc1nn(C)cc1C(=O)N(C1CC1)S(=O)(=O)c1ccc(Oc2ccc(Cl)c(C(F)(F)F)c2)cc1Br` [Compound 553] yielded a chromatographic logP of 4.5.

As to `CCCCCc1ccc(Oc2ccc(S(=O)(=O)N(C(=O)c3cn(C)nc3OCC)C3CC3)c(Br)c2)cc1` [Compound 560], the chromatographic logP stood at 5.6.

Regarding `Cc1nn(C)c(C(=O)N(C2CC2)S(=O)(=O)c2cccc(O)c2O)c1Cl` [Compound 586], the chromatographic logP came to 3.7.
